The text below walks through data of US20080194529A1 (AUSPEX PHARMACEUTICALS, INC., priority 2007, published 2008).

Series [1] is classed as in vitro ADME. The following applies: topical or ocular, 5 microgram per mL. On the procedure:
Liver microsomal stability assays were conducted at 1 mg per mL liver microsome protein with an NADPH-generating system in 2% NaHCO3 (2.2 mM NADPH, 25.6 mM glucose 6-phosphate, 6 units per mL glucose 6-phosphate dehydrogenase and 3.3 mM MgCl2). Test compounds were prepared as solutions in 20% acetonitrile-water and added to the assay mixture (final assay concentration 5 microgram per mL) and incubated at 37° C. Final concentration of acetonitrile in the assay were <1%. Aliquots (50 μL) were taken out at times 0, 15, 30, 45, and 60 minutes, and diluted with ice cold acetonitrile (200 μL) to stop the reactions. Samples were centrifuged at 12000 RPM for 10 minutes to precipitate proteins. Supernatants were transferred to microcentrifuge tubes and stored for LC/MS/MS analysis of the degradation half-life of the test compounds.

For series [2] the following is noted: cited from earlier work.

The structures appear in SMILES notation.

For `[2H]C([2H])(CC)c1nn(C([2H])([2H])[2H])c2c(=O)[nH]c(-c3cc(S(=O)(=O)NCCC4CCCN4C)ccc3OCCC)nc12` (stereo not drawn) [Example 4, d5-3-(1-Methyl-7-oxo-3-propyl-6,7-dihydro-1H-pyrazolo[4,3-d]pyrimidin-5-yl)-N-[2-(1-methyl-pyrrolidin-2-yl)-ethyl]-4-propoxy-benzenesulfonamide], the “increase in the degradation half-life as compared to the non-isotopically enriched drug (udenafil)” value in series [1] is 12-15%.

Take `[2H]C([2H])(CC)c1nn(C)c2c(=O)[nH]c(-c3cc(S(=O)(=O)NCCC4CCCN4C)ccc3OCCC)nc12` (stereo not drawn) [Example 5, d2-3-(1-Methyl-7-oxo-3-propyl-6,7-dihydro-1H-pyrazolo[4,3-d]pyrimidin-5-yl)-N-[2-(1-methyl-pyrrolidin-2-yl)-ethyl]-4-propoxy-benzenesulfonamide]: in series [1], the “increase in the degradation half-life as compared to the non-isotopically enriched drug (udenafil)” value was 12-15%.

As to `CN1CC(=O)N2[C@H](c3ccc4c(c3)OCO4)c3[nH]c4ccccc4c3C[C@@H]2C1=O` [tadalafil], the “side effects of chromatopsia, such as sensitivity to light and blurred vision, in patients taking the drug” value in series [2] was below 0.1%.
